Values after ≈ are worked out from the molar mass of the structure shown.
Key:
Format in all cases: cell-based
[1] = test system: vancomycin-susceptible enterococci, ATCC 29212; assay: Minimum inhibitory concentration against VSE; details: vancomycin-susceptible enterococci, ATCC 29212
Source text: (§1) The chemistry described above enabled direct synthesis of eleven previously unknown analogs of 3. The minimum inhibitory concentrations (MICs) for the new analogs as antibacterial agents as determined.

[2] = test system: vancomycin-resistant enterococci (VanA), MMX 486; assay: Minimum inhibitory concentration against VRE (VanA); details: for activity against VRE (VanA) strain, in words: compared with vancomycin and teicoplanin
Source text: as §1

[3] = test system: vancomycin-resistant enterococci (VanB), ATCC 51299; assay: Minimum inhibitory concentration against VRE (VanB)
Source text: as §1

[4] = test system: methicillin-susceptible S. aureus, ATCC 29213; assay: Minimum inhibitory concentration against MSSA
Source text: as §1

[5] = test system: methicillin-resistant S. aureus, ATCC 43300; assay: Minimum inhibitory concentration against MRSA; details: for potency against MRSA strain, in words: compared with vancomycin and teicoplanin
Source text: as §1

[6] = MMX 486, vancomycin and teicoplanin resistant
[7] = vancomycin-resistant enterococci, ATCC 51299
[8] = methicillin-susceptible S. aureus, ATCC 29213
[9] = methicillin-resistant S. aureus, ATCC 43300
[10] = compared with vancomycin and teicoplanin

| Compound | MIC, VSE [1] | MIC, VRE (VanA) [2, 6] | MIC, VRE (VanB) [3, 7] | MIC, MSSA [4, 8] | MIC, MRSA [5, 9] | activity against VRE (VanA) strain, in words [2] | activity against VRE (VanB) strain, in words [3, 10] | potency against MSSA strain, in words [4, 10] | potency against MRSA strain, in words [5] | MIC ([1]; read-out: MIC, VSE) | MIC ([2]; Enterococcus, VRE, MMX 486, vancomycin and teicoplanin resistant, read-out: MIC, VRE (VanA)) | MIC ([3]; Enterococcus, vancomycin-resistant enterococci, ATCC 51299, read-out: MIC, VRE (VanB)) | MIC ([4]; Staphylococcus aureus, methicillin-susceptible S. aureus, ATCC 29213, read-out: MIC, MSSA) | MIC ([5]; Staphylococcus aureus, methicillin-resistant S. aureus, ATCC 43300, read-out: MIC, MRSA) |
| --- | --- | --- | --- | --- | --- | --- | --- | --- | --- | --- | --- | --- | --- | --- |
| CC(=O)N[C@H]1[C@H](O[C@@H]2c3ccc(c(Cl)c3)Oc3cc4cc(c3O[C@@H]3O[C@H](CO)[C@@H](O)[C@H](O)[C@H]3NC(=O)CCCCCCC(C)C)Oc3ccc(cc3-c3ccoc3)C[C@H]3NC(=O)[C@H](N)c5ccc(O)c(c5)Oc5cc(O)c(-c6ccoc6)c(c5)[C@H](NC3=O)C(=O)N[C@H]4C(=O)N[C@H]3C(=O)N[C@@H]2C(=O)N[C@H](C(=O)O)c2cc(O)cc(O[C@H]4O[C@H](CO)[C@@H](O)[C@H](O)[C@@H]4O)c2-c2cc3ccc2O)O[C@H](CO)[C@@H](O)[C@@H]1O [Compound 15] | 0.12 µg/mL (≈ 0.0607 µM) | >32 µg/mL | 0.25 µg/mL (≈ 0.126 µM) | 0.25 µg/mL (≈ 0.126 µM) | 0.25 µg/mL (≈ 0.126 µM) | – | – | – | – | – | – | – | – | – |
| CC(=O)N[C@H]1[C@H](O[C@@H]2c3ccc(c(Cl)c3)Oc3cc4cc(c3O[C@@H]3O[C@H](CO)[C@@H](O)[C@H](O)[C@H]3NC(=O)CCCCCCC(C)C)Oc3ccc(cc3Cl)C[C@H]3NC(=O)[C@H](N)c5ccc(O)c(c5)Oc5cc(O)cc(c5)[C@H](NC3=O)C(=O)N[C@H]4C(=O)N[C@H]3C(=O)N[C@@H]2C(=O)N[C@H](C(=O)O)c2cc(O)cc(O[C@H]4O[C@H](CO)[C@@H](O)[C@H](O)[C@@H]4O)c2-c2cc3ccc2O)O[C@H](CO)[C@@H](O)[C@@H]1O [Teicoplanin A2-2, reference compound] | 0.25 µg/mL (≈ 0.133 µM) | >64 µg/mL | 0.25 µg/mL (≈ 0.133 µM) | 0.5 µg/mL (≈ 0.266 µM) | 0.5 µg/mL (≈ 0.266 µM) | – | – | – | – | – | – | – | – | – |
| CC(=O)N[C@H]1[C@H](O[C@@H]2c3ccc(c(Cl)c3)Oc3cc4cc(c3O[C@@H]3O[C@H](CO)[C@@H](O)[C@H](O)[C@H]3NC(=O)CCCCCCC(C)C)Oc3ccc(cc3-c3ccoc3)C[C@H]3NC(=O)[C@H](N)c5ccc(O)c(c5)Oc5cc(O)cc(c5)[C@H](NC3=O)C(=O)N[C@H]4C(=O)N[C@H]3C(=O)N[C@@H]2C(=O)N[C@H](C(=O)O)c2cc(O)cc(O[C@H]4O[C@H](CO)[C@@H](O)[C@H](O)[C@@H]4O)c2-c2cc3ccc2O)O[C@H](CO)[C@@H](O)[C@@H]1O [Compound 18] | 0.12 µg/mL (≈ 0.0628 µM) | 32 µg/mL (≈ 16.7 µM) | 0.12 µg/mL (≈ 0.0628 µM) | 0.25 µg/mL (≈ 0.131 µM) | 0.25 µg/mL (≈ 0.131 µM) | enhancement of activity | enhancement of activity | – | – | – | – | – | – | – |
| CC(=O)N[C@H]1[C@H](O[C@@H]2c3ccc(c(Cl)c3)Oc3cc4cc(c3O[C@@H]3O[C@H](CO)[C@@H](O)[C@H](O)[C@H]3NC(=O)CCCCCCC(C)C)Oc3ccc(cc3-c3ccc(-c5ccccc5)cc3)C[C@H]3NC(=O)[C@H](N)c5ccc(O)c(c5)Oc5cc(O)cc(c5)[C@H](NC3=O)C(=O)N[C@H]4C(=O)N[C@H]3C(=O)N[C@@H]2C(=O)N[C@H](C(=O)O)c2cc(O)cc(O[C@H]4O[C@H](CO)[C@@H](O)[C@H](O)[C@@H]4O)c2-c2cc3ccc2O)O[C@H](CO)[C@@H](O)[C@@H]1O [Compound 19] | 0.5 µg/mL (≈ 0.25 µM) | 8 µg/mL (≈ 4.01 µM) | 0.25 µg/mL (≈ 0.125 µM) | 8 µg/mL (≈ 4.01 µM) | 4 µg/mL (≈ 2 µM) | significant activity | – | loss of potency | loss of potency | – | – | – | – | – |
| CC(=O)N[C@H]1[C@H](O[C@@H]2c3ccc(c(Cl)c3)Oc3cc4cc(c3O[C@@H]3O[C@H](CO)[C@@H](O)[C@H](O)[C@H]3NC(=O)CCCCCCC(C)C)Oc3ccc(cc3Cl)C[C@H]3NC(=O)[C@H](N)c5ccc(O)c(c5)Oc5cc(O)c(-c6ccoc6)c(c5)[C@H](NC3=O)C(=O)N[C@H]4C(=O)N[C@H]3C(=O)N[C@@H]2C(=O)N[C@H](C(=O)O)c2cc(O)cc(O[C@H]4O[C@H](CO)[C@@H](O)[C@H](O)[C@@H]4O)c2-c2cc3ccc2O)O[C@H](CO)[C@@H](O)[C@@H]1O [Compound 14] | 0.25 µg/mL (≈ 0.128 µM) | >64 µg/mL | 0.5 µg/mL (≈ 0.257 µM) | 0.25 µg/mL (≈ 0.128 µM) | 0.25 µg/mL (≈ 0.128 µM) | – | – | – | higher potency | – | – | – | – | – |
| CC(=O)N[C@H]1[C@H](O[C@@H]2c3ccc(c(Cl)c3)Oc3cc4cc(c3O[C@@H]3O[C@H](CO)[C@@H](O)[C@H](O)[C@H]3NC(=O)CCCCCCC(C)C)Oc3ccc(cc3Cl)C[C@H]3NC(=O)[C@H](N)c5ccc(O)c(c5)Oc5cc(O)cc(c5)[C@H](NC3=O)C(=O)N[C@H]4C(=O)N[C@H]3C(=O)N[C@@H]2C(=O)N[C@H](C(=O)O)c2c(Br)c(O)cc(O[C@H]4O[C@H](CO)[C@@H](O)[C@H](O)[C@@H]4O)c2-c2cc3ccc2O)O[C@H](CO)[C@@H](O)[C@@H]1O [Compound 4] | 0.5 µg/mL (≈ 0.255 µM) | >64 µg/mL | 1 µg/mL (≈ 0.511 µM) | 0.5 µg/mL (≈ 0.255 µM) | 1 µg/mL (≈ 0.511 µM) | – | – | – | – | – | – | – | – | – |
| CC(=O)NC[C@H]1CN(c2ccc(N3CCOCC3)c(F)c2)C(=O)O1 [Linezolid, reference compound] | – | – | – | – | – | – | – | – | – | 2 µg/mL (≈ 5.93 µM) | 2 µg/mL (≈ 5.93 µM) | 2 µg/mL (≈ 5.93 µM) | 4 µg/mL (≈ 11.9 µM) | 4 µg/mL (≈ 11.9 µM) |
| teicoplanin [reference compound] | 0.25 µg/mL | >64 µg/mL | 0.25 µg/mL | 0.5 µg/mL | 0.5 µg/mL | – | – | – | – | – | – | – | – | – |
| CC(=O)N[C@H]1[C@H](O[C@@H]2c3ccc(c(Cl)c3)Oc3cc4cc(c3O[C@@H]3O[C@H](CO)[C@@H](O)[C@H](O)[C@H]3NC(=O)CCCCCCC(C)C)Oc3ccc(cc3Cl)C[C@H]3NC(=O)[C@H](N)c5ccc(O)c(c5)Oc5cc(O)c(Br)c(c5)[C@H](NC3=O)C(=O)N[C@H]4C(=O)N[C@H]3C(=O)N[C@@H]2C(=O)N[C@H](C(=O)O)c2cc(O)cc(O[C@H]4O[C@H](CO)[C@@H](O)[C@H](O)[C@@H]4O)c2-c2cc3ccc2O)O[C@H](CO)[C@@H](O)[C@@H]1O [Compound 7] | 0.25 µg/mL (≈ 0.128 µM) | >64 µg/mL | 0.5 µg/mL (≈ 0.255 µM) | 0.5 µg/mL (≈ 0.255 µM) | 1 µg/mL (≈ 0.511 µM) | – | – | – | – | – | – | – | – | – |
| CCCCCC/C=C/c1cc2ccc1Oc1cc3cc(c1O[C@@H]1O[C@H](CO)[C@@H](O)[C@H](O)[C@H]1NC(=O)CCCCCCC(C)C)Oc1ccc(cc1Cl)[C@@H](O[C@@H]1O[C@H](CO)[C@@H](O)[C@H](O)[C@H]1NC(C)=O)[C@@H]1NC(=O)[C@H](NC(=O)[C@@H]3NC(=O)[C@H]3NC(=O)[C@@H](C2)NC(=O)[C@H](N)c2ccc(O)c(c2)Oc2cc(O)cc3c2)c2ccc(O)c(c2)-c2c(O[C@H]3O[C@H](CO)[C@@H](O)[C@H](O)[C@@H]3O)cc(O)cc2[C@@H](C(=O)O)NC1=O [Compound 20] | 0.5 µg/mL (≈ 0.256 µM) | 1 µg/mL (≈ 0.511 µM) | 0.25 µg/mL (≈ 0.128 µM) | 8 µg/mL (≈ 4.09 µM) | 4 µg/mL (≈ 2.05 µM) | quite high (significant) potency | – | – | – | – | – | – | – | – |
| CC(=O)N[C@H]1[C@H](O[C@@H]2c3ccc(c(Cl)c3)Oc3cc4cc(c3O[C@@H]3O[C@H](CO)[C@@H](O)[C@H](O)[C@H]3NC(=O)CCCCCCC(C)C)Oc3ccc(cc3-c3ccc(-c5ccccc5)cc3)C[C@H]3NC(=O)[C@H](N)c5ccc(O)c(c5)Oc5cc(O)cc(c5)[C@H](NC3=O)C(=O)N[C@H]4C(=O)N[C@H]3C(=O)N[C@@H]2C(=O)N[C@H](C(=O)O)c2c(Br)c(O)cc(O[C@H]4O[C@H](CO)[C@@H](O)[C@H](O)[C@@H]4O)c2-c2cc3ccc2O)O[C@H](CO)[C@@H](O)[C@@H]1O [Compound 17] | 1 µg/mL (≈ 0.482 µM) | 32 µg/mL (≈ 15.4 µM) | 0.5 µg/mL (≈ 0.241 µM) | 4 µg/mL (≈ 1.93 µM) | 2 µg/mL (≈ 0.963 µM) | – | – | – | – | – | – | – | – | – |
| CC(=O)N[C@H]1[C@H](O[C@@H]2c3ccc(c(Cl)c3)Oc3cc4cc(c3O[C@@H]3O[C@H](CO)[C@@H](O)[C@H](O)[C@H]3NC(=O)CCCCCCC(C)C)Oc3ccc(cc3Cl)C[C@H]3NC(=O)[C@H](N)c5ccc(O)c(c5)Oc5cc(c(Br)c(O)c5Br)[C@H](NC3=O)C(=O)N[C@H]4C(=O)N[C@H]3C(=O)N[C@@H]2C(=O)N[C@H](C(=O)O)c2cc(O)c(Br)c(O[C@H]4O[C@H](CO)[C@@H](O)[C@H](O)[C@@H]4O)c2-c2cc3ccc2O)O[C@H](CO)[C@@H](O)[C@@H]1O [Compound 12] | 4 µg/mL (≈ 1.89 µM) | >64 µg/mL | 8 µg/mL (≈ 3.78 µM) | 2 µg/mL (≈ 0.945 µM) | 2 µg/mL (≈ 0.945 µM) | – | – | – | – | – | – | – | – | – |
| CC(=O)N[C@H]1[C@H](O[C@@H]2c3ccc(c(Cl)c3)Oc3cc4cc(c3O[C@@H]3O[C@H](CO)[C@@H](O)[C@H](O)[C@H]3NC(=O)CCCCCCC(C)C)Oc3ccc(cc3-c3ccoc3)C[C@H]3NC(=O)[C@H](N)c5ccc(O)c(c5)Oc5cc(O)cc(c5)[C@H](NC3=O)C(=O)N[C@H]4C(=O)N[C@H]3C(=O)N[C@@H]2C(=O)N[C@H](C(=O)O)c2c(Br)c(O)cc(O[C@H]4O[C@H](CO)[C@@H](O)[C@H](O)[C@@H]4O)c2-c2cc3ccc2O)O[C@H](CO)[C@@H](O)[C@@H]1O [Compound 16] | 0.25 µg/mL (≈ 0.126 µM) | >64 µg/mL | 0.5 µg/mL (≈ 0.251 µM) | 0.5 µg/mL (≈ 0.251 µM) | 0.5 µg/mL (≈ 0.251 µM) | – | – | – | – | – | – | – | – | – |
